Measurements published in paper PMC11822212, “High-throughput screening identifies Aurora kinase B as a critical therapeutic target for Merkel cell carcinoma” (Nature Communications, 2025).
Counter-ions that a name gives are not always drawn.

How the values were obtained:
MKL-2 cells (VP-MCC) [1] = type: cell-based, human
Method: (§1) A non-targeting control (Silencer Select Negative Control No. 2 siRNA) and a positive control (AllStars Cell Death Control siRNA) were used as controls. Lipofectamine RNAiMax (Thermo Fisher Scientific, Grand Island, NY) was obtained as the transfection reagent. […] Three siRNAs per gene were arrayed in 384 well plates, one siRNA per well. […] Cell viability was measured by CellTiter-Glo assay following the manufacturer's instructions (G7572; Promega, Madison, WI, USA) 96 h after siRNA transfection. Assay plates were measured using BMG Pherastar plate reader Three different siRNAs (sequences: [NT], and [NT] targeting INCENP as well as negative non-targeting siRNA control were purchased from Thermo Fisher Scientific (Grand Island, NY).

MCC26 cells (VN-MCC) [2] = type: cell-based, human
Method: as §1

[3] = tested on: VN-MCC cell lines (MCC13, MCC26, UISO); experiment: qHTS cell viability, VN-MCC cell lines as a group (mean AUC, VN.MCC.avg); type: cell-based, human; details: NPC library; for VN-MCC_Avg_AUC: mean AUC of VN-MCC cell lines
HEK293T cells = experiment: qHTS cell viability (CellTiter-Glo, 72 h; primary screen), control cell line; type: cell-based, human; details: NPC library
[4] = tested on: six MCC cell lines and four control cell lines; experiment: qHTS cell viability, all 10 cell lines screened; type: cell-based; details: NPC library
WAGA cells (VP-MCC) = experiment: qHTS cell viability (CellTiter-Glo, 72 h; primary and follow-up small molecule screen); type: cell-based, human; details: NPC library
MKL-2 cells (VP-MCC) [5] = experiment: as above; type: cell-based, human; details: NPC library
MCC13 cells (VN-MCC) = experiment: as above; type: cell-based, human; details: NPC library
HACAT cells = experiment: qHTS cell viability (CellTiter-Glo, 72 h; primary screen), control cell line; type: cell-based, human; details: NPC library
[6] = tested on: control cell lines (HACAT, HEK293T, CRL-7250, NIH-3T3); experiment: qHTS cell viability, control cell lines as a group (mean AUC, Control.avg); type: cell-based; details: NPC library; mean AUC of control cell lines
[7] = tested on: MCC cell lines (WAGA, MKL-1, MKL-2, MCC13, MCC26, UISO); experiment: qHTS cell viability, all six MCC cell lines as a group (mean AUC, MCC.avg); type: cell-based, human; details: NPC library; mean AUC of six MCC cell lines
NIH-3T3 cells = experiment: qHTS cell viability (CellTiter-Glo, 72 h; primary screen), control cell line; type: cell-based, mouse; details: NPC library
UISO cells (VN-MCC) = experiment: qHTS cell viability (CellTiter-Glo, 72 h; primary and follow-up small molecule screen); type: cell-based, human; details: NPC library
CRL-7250 cells = experiment: qHTS cell viability (CellTiter-Glo, 72 h; primary screen), control cell line; type: cell-based; details: NPC library
MKL-1 cells (VP-MCC) = experiment: qHTS cell viability (CellTiter-Glo, 72 h; primary and follow-up small molecule screen); type: cell-based, human; details: NPC library
MCC26 cells (VN-MCC) [8] = experiment: as above; type: cell-based, human; details: NPC library
[9] = tested on: VP-MCC cell lines (WAGA, MKL-1, MKL-2); experiment: qHTS cell viability, VP-MCC cell lines as a group (mean AUC, VP.MCC.avg); type: cell-based, human; details: NPC library; for VP-MCC_Avg_AUC: mean AUC of VP-MCC cell lines
[10] = therapeutic window: Control avg AUC minus VN-MCC avg AUC
[11] = qHTS dose-response AUC, HEK293T control
[12] = therapeutic window: Control avg AUC minus MCC avg AUC
[13] = qHTS dose-response AUC, HACAT control
[14] = qHTS dose-response AUC, NIH3T3 control
[15] = qHTS dose-response AUC, CRL7250 control
[16] = therapeutic window: Control avg AUC minus VP-MCC avg AUC
[17] = 8-point DRC, area under dose-response curve

## GCAGGUUCCUUAUCUGUCAtt (GCAGGUUCCUUAUCUGUCATT; chemistry not given here)
MKL-2 cells (VP-MCC) [1]
  Percent viability: 56.1%
MCC26 cells (VN-MCC) [2]
  Percent viability: 85.0%

## UAUUGUUGGUUUCCUUUGC (chemistry not given here)
MKL-2 cells (VP-MCC) [1]
  Percent viability: 92.8%
MCC26 cells (VN-MCC) [2]
  Percent viability: 96.2%

## GCUUGUACCUCAUAUCAGAtt (GCUUGUACCUCAUAUCAGATT; chemistry not given here)
MKL-2 cells (VP-MCC) [1]
  Percent viability: 48.4%
MCC26 cells (VN-MCC) [2]
  Percent viability: 90.4%

## AAAUGUUGAUCUCCUUUCC (chemistry not given here)
MKL-2 cells (VP-MCC) [1]
  Percent viability: 84.7%
MCC26 cells (VN-MCC) [2]
  Percent viability: 97.2%

## CAAAGGAAACCAACAAUAAtt (CAAAGGAAACCAACAAUAATT; chemistry not given here)
MKL-2 cells (VP-MCC) [1]
  Percent viability: 80.7%
MCC26 cells (VN-MCC) [2]
  Percent viability: 87.6%

## AGUCCUUUAUUAAGCGCAAtt (AGUCCUUUAUUAAGCGCAATT; chemistry not given here)
MKL-2 cells (VP-MCC) [1]
  Percent viability: 80.2%
MCC26 cells (VN-MCC) [2]
  Percent viability: 103.7%

## AGAUCAACCCAGAUAACUAtt (AGAUCAACCCAGAUAACUATT; chemistry not given here)
MKL-2 cells (VP-MCC) [1]
  Percent viability: 48.5%
MCC26 cells (VN-MCC) [2]
  Percent viability: 73.1%

## CCOC(=O)[C@@](C)(N)Cc1ccc(O)c(O)c1 [Methyldopate hydrochloride]
[3]
  VN-MCC_Avg_AUC: 434.044
[3]; [10]
  Control-VN-MCC: 7.843
HEK293T cells; [11]
  HEK293T_AUC: 443.954
[4]; [12]
  Control-MCC: 30.264
WAGA cells (VP-MCC); qHTS dose-response AUC, WAGA
  WAGA_AUC: 402.509
MKL-2 cells (VP-MCC) [5]; qHTS dose-response AUC, MKL2
  MKL2_AUC: 398.602
MCC13 cells (VN-MCC); qHTS dose-response AUC, MCC13
  MCC13_AUC: 447.588
HACAT cells; [13]
  HACAT_AUC: 480.325
[6]
  Control_Avg_AUC: 441.887
[7]
  MCC_Avg_AUC: 411.623
NIH-3T3 cells; [14]
  NIH3T3_AUC: 431.18
UISO cells (VN-MCC); qHTS dose-response AUC, UISO
  UISO_AUC: 416.553
CRL-7250 cells; [15]
  CRL7250_AUC: 412.089
MKL-1 cells (VP-MCC); qHTS dose-response AUC, MKL1
  MKL1_AUC: 366.496
MCC26 cells (VN-MCC) [8]; qHTS dose-response AUC, MCC26
  MCC26_AUC: 437.99
[9]
  VP-MCC_Avg_AUC: 389.202
[9]; [16]
  Control-VP-MCC: 52.6846

## UGAAUGUAGAGAUGCGGUG (chemistry not given here)
MKL-2 cells (VP-MCC) [1]
  Percent viability: 74.1%
MCC26 cells (VN-MCC) [2]
  Percent viability: 98.4%

## O=C1CC2(CCCC2)CC(=O)N1CCCCN1CCN(c2ncccn2)CC1 [Buspirone]
[3]; Control AUC minus VN-MCC AUC (therapeutic window)
  Control-VN-MCC: 50.1753
[3]
  VN-MCC_Avg_AUC: 437.494
HEK293T cells; 8-point DRC, control cell line
  HEK293T_AUC: 489.604
[4]; Control AUC minus MCC AUC (therapeutic window)
  Control-MCC: 50.4353
WAGA cells (VP-MCC); [17]
  WAGA_AUC: 446.274
MKL-2 cells (VP-MCC) [5]; [17]
  MKL2_AUC: 407.552
MCC13 cells (VN-MCC); [17]
  MCC13_AUC: 448.981
HACAT cells; 8-point DRC, control cell line
  HACAT_AUC: 483.772
[6]
  Control_Avg_AUC: 487.669
[7]
  MCC_Avg_AUC: 437.234
NIH-3T3 cells; 8-point DRC, control cell line
  NIH3T3_AUC: 490.08
UISO cells (VN-MCC); [17]
  UISO_AUC: 435.953
CRL-7250 cells; 8-point DRC, control cell line
  CRL7250_AUC: 487.221
MKL-1 cells (VP-MCC); [17]
  MKL1_AUC: 457.095
MCC26 cells (VN-MCC) [8]; [17]
  MCC26_AUC: 427.549
[9]; Control AUC minus VP-MCC AUC (therapeutic window)
  Control-VP-MCC: 50.6954
[9]
  VP-MCC_Avg_AUC: 436.974

## Cn1c(=O)c2c(ncn2CCO)n(C)c1=O [Etofylline]
[3]
  VN-MCC_Avg_AUC: 441.93
[3]; [10]
  Control-VN-MCC: 21.1816
HEK293T cells; [11]
  HEK293T_AUC: 445.08
[4]; [12]
  Control-MCC: 54.9761
WAGA cells (VP-MCC); qHTS dose-response AUC, WAGA
  WAGA_AUC: 399.645
MKL-2 cells (VP-MCC) [5]; qHTS dose-response AUC, MKL2
  MKL2_AUC: 336.333
MCC13 cells (VN-MCC); qHTS dose-response AUC, MCC13
  MCC13_AUC: 458.423
HACAT cells; [13]
  HACAT_AUC: 491.237
[6]
  Control_Avg_AUC: 463.112
[7]
  MCC_Avg_AUC: 408.136
NIH-3T3 cells; [14]
  NIH3T3_AUC: 458.11
UISO cells (VN-MCC); qHTS dose-response AUC, UISO
  UISO_AUC: 431.565
CRL-7250 cells; [15]
  CRL7250_AUC: 458.019
MKL-1 cells (VP-MCC); qHTS dose-response AUC, MKL1
  MKL1_AUC: 387.045
MCC26 cells (VN-MCC) [8]; qHTS dose-response AUC, MCC26
  MCC26_AUC: 435.802
[9]
  VP-MCC_Avg_AUC: 374.341
[9]; [16]
  Control-VP-MCC: 88.7707
